From patent US20100047227A1, “NOVEL ANTICANCER CATHEPSIN FORMULATIONS AND ANTICANCER AGENT FOR USE IN COMBINED ANTICANCER THERAPY” (priority 2006, published 2010)
Square brackets hold non-standard residues; d marks the D form. Peptide text beside a SMILES is read from it. * marks the point of attachment. Sta = CC(C)C[C@H](N)[C@@H](O)CC(=O)O; Isovaleryl = CC(C)CC(=O)*; Cbz = O=C(OCc1ccccc1)*; CH2F = FC*

Assays:
Format in all cases: cell-based
[1] = test system: human leukemia U937 cells; test: survival of human leukemia U937 cells; conditions: sole administration, 10 μg/ml
[2] = test system: human prostate cancer ALVA-41 cells; test: survival rate of cells (Cell Counting Kit-8), ALVA-41 cells; conditions: for number of living cells: ALVA-41 cells, 20 hours
Procedure: The survival rate of cells was measured by Cell Counting Kit-8 in accordance with a manufacturer's manual. The method will be described briefly as follows. A 96-well (each 100 μl) plate was inoculated with cells (1×10^4 cells) and incubated for 24 hours, and the cells were incubated in a non-serum culture medium Opti-MEM together with a given concentration of each cathepsin purified from rat stomach (References #27 and #60-#62). Thereafter, the kit reagent (10 μl) was added to each well and the wells were incubated for another 1 hour. After incubation, each well was measured at the absorbance of 450 nm with a microplate reader.
(§1) In the figure, an indicating bar scale represents 50 μm. […] In the figure, an indicating bar scale represents 50 μm.
In this experiment, the survival rate of the ALVA-41 cells was measured by incubating the cells with cathepsin E of a given concentration in the presence or absence of pepstatin A (100 μM) at 37° C. and pH 7.4 for 20 hours. The data is represented as a percentage with respect to the value for non-treated cell group. The data were obtained as an average value±SD from the data obtained by four separate experiments. […] In this experiment, the HEK293 cells were incubated together with a given concentration of natural cathepsin E, wild-type recombinant and the active site mutant (D98A/D283A) at 37° C. and pH 7.4 for 20 hours. The survival rate of the cells was measured and represented as a percentage with respect to the value of the non-treated cell group. The data represents an average value±SD from the data obtained by four separate experiments. In the value, *p<0.001 is a corresponding value for the cells treated with the mutant. […] In this experiment, ALVA-41 cells were treated solely with cathepsin E of a given concentration in the same manner as for FIG. 2A and the culture supernatant was recovered, followed by centrifuging to remove the precipitate and transferring a portion ([…]) of the supernatant to a freshly prepared culture of ALVA-41 cells. Thereafter, the cells were incubated at 37° C. and pH 7.4 for 20 hours in the absence (black round mark) or presence (white round mark) of pepstatin A (100 μM) and measured for the survival rate of the cells. The cell survival rate is represented as a percentage with respect to the value of the cells treated with the culture supernatant of the ALVA-41 cells treated with physiological saline. The data is represented as an average value±SD from the data obtained by four separate experiments. […] The cathepsin E activity (on the upper panel) and the cytotoxic activity (on the lower panel) of each column fraction were determined using freshly prepared ALVA-41 cells and a cathepsin E-specific substrate. The cell survival rate of each fraction treated with the protein at a given final concentration is represented as a percentage with respect to the value of the cells treated with physiological saline and as an average value±SD from the data obtained by four separate experiments. The cathepsin E activity is represented as a percentage of the total activity in the culture supernatant, and the data is represented as an average±SD from the data obtained by three separate experiments.

[3] = test system: human prostate cancer ALVA-41 cells; test: measurement for apoptosis (morphology, annexin V staining, TUNEL assay), ALVA-41 cells; conditions: for effect of caspase inhibitor on cell death of cancer cells caused by cathepsin E: ALVA-41 cells treated with cathepsin E
Procedure: The cells were measured for a morphological variation of apoptosis by phase contrast microscopy. The cells of prophase and post-phase apoptosis were detected by annexin V staining and TUNEL assay. In order to carry out the annexin V staining of ALVA-41 cells, the cells were exposed to cathepsin E or cathepsin L for 4 hours and centrifuged. After centrifugation, the separated cells were washed twice with PBS and incubated with fluorescein isothiocyanate-conjugated annexin V for 10 minutes at room temperature in a dark place. The cells that were positive as a result of the annexin V staining were then detected with fluorescence microscope. The TUNEL assay was carried out for the incubated tumor cells using Apop Tag Peroxidase Apoptosis Detection Kit and for heterografts using Tumor TACS In Situ Apoptosis Detection Kit.
as §1

In the case of `COc1cc([C@@H]2c3cc4c(cc3[C@@H](O[C@@H]3O[C@@H]5CO[C@@H](C)O[C@H]5[C@H](O)[C@H]3O)[C@H]3COC(=O)[C@H]23)OCO4)cc(OC)c1O` [etoposide], the “rate of apoptosis of U937 cells” value [1] was “approximately 40%”.
With `CC(C)CC(=O)N[C@H](C(=O)N[C@H](C(=O)N[C@@H](CC(C)C)[C@@H](O)CC(=O)N[C@@H](C)C(=O)N[C@@H](CC(C)C)[C@@H](O)CC(=O)O)C(C)C)C(C)C` [pepstatin A, reference compound] (Isovaleryl-VV[Sta]A[Sta]-OH) the “effect on cytotoxicity of cathepsin E against cancer cells” value ([2]; added to culture medium of ALVA-41 cells, pepstatin A 100 μM) was “suppressed”.
With `COC(=O)C[C@H](NC(=O)[C@H](C)NC(=O)[C@@H](NC(=O)OCc1ccccc1)C(C)C)C(=O)CF` [z-VAD-fmlk, reference compound] (Cbz-Val-Ala-Asp(OMe)-CH2F) the “effect of caspase inhibitor on cell death of cancer cells caused by cathepsin E” value [3] was “suppression”.
In the case of DEVD-fmlk [reference compound], the “effect of caspase inhibitor on cell death of cancer cells caused by cathepsin E” value [3] was “suppression”.
cathepsin B was tested, and the “number of living cells” value ([2]; neutral pH, 10-100 μg/ml) was “increased the number of living cells in a concentration-dependent way”.
In the case of cathepsin D, the “number of living cells” value ([2]; neutral pH, 10-100 μg/ml) was “increased the number of living cells in a concentration-dependent way”.
cathepsin L was tested, and the “staining with annexin V and TUNEL reagent” value ([3]; ALVA-41 cells, 100 μg/ml) was “negative”, the “morphological changes of treated cells” value ([3]; ALVA-41 cells, microscopy, 100 μg/ml) was “necrosis-like morphological changes” and the “number of living cells” value ([2]; high concentration range (50-100 μg/ml)) was “decreases the number of the living cells”. For the same molecule, the “number of living cells” value ([2]; low concentration (10 μg/ml)) was “increase in the number of these living cells”.
